This is an account of results in ChEMBL document CHEMBL5331124, “Degradation of Hexokinase 2 Blocks Glycolysis and Induces GSDME-Dependent Pyroptosis to Amplify Immunogenic Cell Death for Breast Cancer Therapy” (J Med Chem, 2023).

Data set [1] relates to PANC-1. The data set can be described thus: Antiproliferative activity against human PANC-1 cells assessed as cell growth inhibition measured for 72 hrs by MTT assay. As to conditions: PANC-1, 72 h. The class given is functional, cell-based. (In general: Tetrazolium assays rely on reduction of a dye to a coloured formazan, in cell work by metabolically active cells.)
Data set [2] deals with T1, Hexokinase-2 (Mus musculus) (UniProt O08528).
T1 sequence (whole entry): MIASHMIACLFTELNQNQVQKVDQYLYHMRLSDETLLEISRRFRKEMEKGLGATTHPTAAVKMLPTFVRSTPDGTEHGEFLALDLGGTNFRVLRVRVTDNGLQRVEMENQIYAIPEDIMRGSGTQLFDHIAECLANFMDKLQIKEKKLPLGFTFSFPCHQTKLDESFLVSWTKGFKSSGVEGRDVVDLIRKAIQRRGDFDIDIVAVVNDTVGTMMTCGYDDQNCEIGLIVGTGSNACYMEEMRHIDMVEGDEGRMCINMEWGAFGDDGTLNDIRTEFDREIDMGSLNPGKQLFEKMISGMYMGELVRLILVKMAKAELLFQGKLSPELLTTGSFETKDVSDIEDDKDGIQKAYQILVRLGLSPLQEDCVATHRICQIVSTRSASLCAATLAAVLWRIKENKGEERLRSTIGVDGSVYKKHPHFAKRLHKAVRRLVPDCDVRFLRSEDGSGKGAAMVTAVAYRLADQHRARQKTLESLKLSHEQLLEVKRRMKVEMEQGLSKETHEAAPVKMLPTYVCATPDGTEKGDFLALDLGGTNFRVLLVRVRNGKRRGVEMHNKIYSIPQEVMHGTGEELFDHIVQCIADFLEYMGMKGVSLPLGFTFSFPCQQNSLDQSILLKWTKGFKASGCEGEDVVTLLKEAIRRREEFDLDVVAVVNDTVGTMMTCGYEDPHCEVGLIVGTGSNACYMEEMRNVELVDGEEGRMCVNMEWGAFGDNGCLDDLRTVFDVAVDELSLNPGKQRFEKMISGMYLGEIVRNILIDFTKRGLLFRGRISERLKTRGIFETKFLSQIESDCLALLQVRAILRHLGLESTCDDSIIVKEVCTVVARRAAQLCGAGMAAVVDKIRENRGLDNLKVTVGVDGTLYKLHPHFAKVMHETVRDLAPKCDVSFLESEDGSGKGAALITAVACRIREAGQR
Put plainly: Induction of HK2 degradation in mouse 4T1 cells at 20 uM measured for 36 hrs by Western blot analysis relative to control. The class given is cell-based.

The test system of data set [3] is HGC-27. Put plainly: Antiproliferative activity against human HGC-27 cells assessed as cell growth inhibition measured for 72 hrs by MTT assay. Type of data set: functional, cell-based. Particulars: HGC-27, 72 h.
Data set [4] relates to 786-0. The data set can be described thus: Antiproliferative activity against human 786-0 cells assessed as cell growth inhibition measured for 72 hrs by MTT assay. The class given is functional, cell-based. Particulars: 786-0, 72 h.
In data set [5] the test system is MCF7. Put plainly: Potency index, ratio of IC50 for lonidamine to test compound IC50 for human MCF7 cells assessed as cell growth inhibition measured for 72 hrs by MTT assay. The class given is functional.
Data set [6] concerns MCF7. Put plainly: Antiproliferative activity against human MCF7 cells assessed as cell growth inhibition measured for 72 hrs by MTT assay. Particulars: MCF7, 72 h. Type of data set: functional, cell-based.
Data set [7] concerns 4T1. The data set can be described thus: Antiproliferative activity against mouse 4T1 cells assessed as cell growth inhibition measured for 72 hrs by MTT assay. Type of data set: functional, cell-based. Particulars: 4T1, 72 h.
Data set [8] deals with 786-0. Put plainly: Potency index, ratio of IC50 for lonidamine to test compound IC50 for human 786-0 cells assessed as cell growth inhibition measured for 72 hrs by MTT assay. The class given is functional.
For data set [9], the system named is PANC-1. The data set can be described thus: Potency index, ratio of IC50 for lonidamine to test compound IC50 for human PANC-1 cells assessed as cell growth inhibition measured for 72 hrs by MTT assay. Type of data set: functional.
Data set [10] deals with 4T1. The data set can be described thus: Upregulation of HK2 protein expression in mouse 4T1 cells at 2 uM incubated for 6 hrs by Western blot analysis. The class given is functional, cell-based. A general note: In western blotting, separated proteins are transferred to a membrane and probed.
The nature of data set [11]: Drug uptake in mouse 4T1 cells assessed as drug internalization at 20 uM incubated for 36 hrs by immunofluorescence analysis. Particulars: 4t1, 36 h. The class given is ADME, cell-based.

Calls of active or inactive are those of the source. No cut-off for these calls is given here. Residues, ends and D or L forms follow the SMILES beside them. *: point of attachment. Cbz = O=C(OCc1ccccc1)*

Consider `O=C1CCC(N2C(=O)c3cccc(NCCOCCOCCNC(=O)c4nn(Cc5ccc(Cl)cc5Cl)c5ccccc45)c3C2=O)C(=O)N1` (stereo not drawn), for which the half-inhibitory concentration (IC50) (in general, the concentration needed to halve the response being measured) is 37.8 µM in [1]; 24 µM in [3]; 30.1 µM in data set [4]; 18.2 µM in data set [6]; 22.9 µM in [7]. The molecule also had an Activity in data set [2] of 30.6%. Further, in data set [5], the “Ratio IC50” value is on record as 10.9.
On to `O=C1CCC(N2C(=O)c3cccc(NCCCNC(=O)c4nn(Cc5ccc(Cl)cc5Cl)c5ccccc45)c3C2=O)C(=O)N1` (stereo not drawn), for which the IC50 in [1] came out at 25.4 µM; in data set [3] it was 7.22 µM; in data set [4], 12.2 µM; in data set [6], 18.7 µM; in [7], 34.6 µM. For the same molecule, in [2], the Activity was determined as 10.8%. In addition, the “Ratio IC50” value in data set [8] is reported as 9.8; in data set [9], 6.5.
Regarding `CC(C)C[C@@H](C=O)NC(=O)[C@H](CC(C)C)NC(=O)[C@H](CC(C)C)NC(=O)OCc1ccccc1` (Cbz-Leu-Leu-Leu-aldehyde), in [10], the result was Active.
As for `O=C1CCC(N2C(=O)c3cccc(NCCCCOC(=O)c4nn(Cc5ccc(Cl)cc5Cl)c5ccccc45)c3C2=O)C(=O)N1` (stereo not drawn), the IC50 in data set [1] was found to be 46.3 µM; in [3], 10.2 µM; in [4], 70.3 µM; in data set [6] it was 64.2 µM; in data set [7], 32.2 µM. Moreover, in [2], the Activity worked out at 22.9%. Further, in [11], the Drug uptake result was “Active”.
